Measurements taken from US8969549B2, “Antioxidant small molecules aimed at targeting metal-based oxidative stress in neurogenerative disorders” (Texas Christian University, priority 2013, dated 2015).

Tests used:
[1] = DPPH radical quenching assay; assay type: biochemical; conditions: 1250 μM
Description: (§1) Compound 2 (Chart 2) exists largely as the pyridol tautomer as confirmed by NMR. The reactivity of pyridol/pyridone based compounds such as chelidamic acid have shown reactivity with OH radicals in solution to form bis-pyridones and is a different mechanism than pyridine based compounds such as 1 (Chart 2). This reactivity is attributed to the enhanced antioxidant capacity observed. Chelidamic acid is the pyridone congener to the starting material used to produce 1. Therefore similar methodologies to produce 2 in gram scale quantities were employed.
As radicals are one product of miscompartmentalized metal ions, radical scavenging capability of compounds 1-3 (Chart 4) was tested using the DPPH assay. DPPH (2,2-diphenyl-1-picrylhydrazyl), is a dark purple (λmax=540 nm), stable free radical in solution that can be reduced to DPPHH in the presence of molecules with radical scavenging activity. This process results in a color change from dark purple to light yellow and can be followed spectroscopically by the decrease of the band at 540 nm. Applicants have, therefore, utilized this method to measure radical scavenging capability of their own organic molecules. BHT (butylhydroxytoluene) was used as a positive control due to its known antioxidant properties.
DPPH stock solution was prepared by dissolving 25 mg in 100 mL of absolute EtOH. The working radical solution was prepared by dilution with absolute EtOH to an absorbance of 1.3 at 512 nm. Stock solutions of the compounds tested were dissolved in DI H2O and EtOH 95% respectively and serial dilutions were made to get different concentrations. For the analysis 2 mL of the solutions were incubated with 2 mL of DPPH working solutions in the dark for 24 h. as well as 2 mL of DPPH working solution with 2 mL of H2O or EtOH to serve as blank. Analysis of the solutions was performed as follows: 1 mL of the sample solution was diluted with 1 mL of H2O shaken and the absorbance was measured at 515 nm.

[2] = MTT cytotoxicity assay; assay type: cell-based; conditions: mouse, HT-22 hippocampal neuronal cells, HT-22 cells
Procedure: As these compounds show potential for future in vivo studies, the 3-(4,5-dimethythiazol-2-yl)-2,5-diphenyl tetrazolium bromide (MTT) assay was performed in order to test compounds 2, 3 of Chart 4 for cytotoxicity with HT-22 cells, which is a hippocampal neuronal cell line extracted from mice. This is a colorimetric assay that measures the mitochondrial activity of living cells in which MTT crosses into the mitochondria where it is reduced to media insoluble formazan (dark purple), which is later solubilized in DMSO and measured spectroscopically (λmax=540 nm). Since the reduction of MTT can only occur in living cells with undamaged mitochondria, this is a good assay to measure cell proliferation and cytotoxicity.
For the biological assays mouse hippocampal HT-22 cell line was used, incubated them at 37° C. in a humidified atmosphere 5% CO2, with Dulbecco's Modified Eagle Medium (500 ml) containing penicillin/streptomycin 100× (5 ml), Glutamine (100 mM, 5 ml), charcoal strip fetal bovine serum. […]
(§2) (3-(4,5-dimethylthiazol-2-yl)-2,5-diphenyltetrazolium bromide) cells were seeded in a 96 well plate with a density of 5000 cells per well (in 100 μL per well). […] Media is discarded again and 100 μL of DMSO are added to each well, rocked for 5 minutes and the absorbance (A510) was measured using a Molecular Devices Kinetic Microplate Reader.

[3] = system: HT-22 cells; assay: Aβ and Cu^+2 toxicity protection (MTT); assay type: cell-based, mouse; conditions: compound 50 to 120 μM, Aβ 15 μM, copper 15 μM
Procedure: In FIG. 16 one can observe that compound 2 (LC) is capable of protection from ranges of 50 to 120 μM reaching 37% of increase of cell proliferation with respect to the control (Aβ+Cu^+2). It is also shown that Aβ toxicity (15 μM) increases upon addition of copper (15 μM) opening the possibility of explaining the mechanism of action of LC (compound 2) which involves the possible chelation of copper out of the plaques, although the possibility of assessing ROS is always present. The experiment is completed with several controls including just compound 2, (Chart 4) and just copper, for comparison purposes.
The same analysis was performed for compound 3, (Chart 4), keeping the same ranges of concentrations for the compound (50 to 120 μM) as well as amyloid and copper. Restoring of cell proliferation was observed from 3 to 17%. […]
as §2

[4] = cited from earlier work
[5] = LA/DHLA; cited from earlier work
[6] = log K constants with Cu^II; assay type: binding
Description: (§3) The ligand is the backbone to PCTA, a potential MRI contrast agent explored in recent years and has been repurposed for Applicant's work.

[7] = log K constants with Zn^II; assay type: binding
Description: as §3

[8] = system: Aβ1-40; assay: Turbidity assay of metal-induced amyloid aggregation; assay type: biochemical; conditions: for disaggregation of pre-formed metal-induced Aβ1-40 aggregates (turbidity): copper(II) or zinc(II) aggregates, ligand added afterwards
Description: Metal ions (copper and zinc) bind to a histidine rich domain in amyloid producing Aβ in the form of insoluble plaques. This process has been comprehensively studied and described in a number of recent reviews. The aggregation of amyloid can be followed by simple spectroscopic techniques such as turbidity and tyrosine fluorescence studies. These methods were used to investigate the ability of 1 to dissociate pre-formed amyloid aggregates upon addition of metal ions, as well as prevent amyloid aggregation.
Metal ions bind to a histidine rich domain in amyloid producing Aβ in the form of insoluble plaques. This process has been extensively studied and described in a number of recent reviews.

[9] = system: Aβ1-40; assay: Tyr^10 fluorescence of Aβ1-40; assay type: biochemical
Description: FIG. 2 is a graph showing the addition of ligands 1-4 to aggregated Aβ results in reconstitution of Tyr^10 fluorescence which was decreased due to aggregate formation.
To further determine the capability of 1 to prevent or disrupt metal-ion induced amyloid aggregation, Applicant's studied Tyr fluorescence intensity. Recent reports have also utilized the natural fluorescence of the native Tyr^10 in the Aβ1-40 sequence to study the conformational dynamics of amyloid folding as it relates to AD and/or production of H2O2. As Tyr^10 is located within proximity to the metal binding pocket in Aβ1-40 the fluorescence intensity of the phenolic side chain decreases during the folding process due to environmental changes that occur locally. This work was supported by circular dichroism spectra, which verified that fluorescence intensity decreased as the conformation of amyloid changed to beta-sheets. […] Applicant's hypothesis was that Tyr fluorescence intensity should be restored to control levels upon addition of compounds 1-4 (Chart 1) to a solution of pre-formed metal aggregates, as shown below in FIG. 2. […] Similar results were also obtained for amyloid samples co-incubated with 1-4 prior to metal ion addition.
The macrocyclic compound 2 (Chart 2) is also a chelator capable of preventing metal-induced amyloid formation as well as disaggregation. Metal ions bind to a histidine rich domain in amyloid producing Aβ in the form of insoluble plaques. This process has been extensively studied and described in a number of recent reviews. […] Moreover, amyloid aggregates formed by metal ion co-incubation can be disaggregated by the addition of compounds 1 or 2 (FIG. 12b).

[10] = system: amyloid aggregates; assay: TEM imaging of copper-induced amyloid aggregates; assay type: biochemical; conditions: incubated 12 hours
Procedure: FIG. 3 is an illustration of TEM Images showing (a) copper induced aggregation of amyloid and (b) its dissolution by 1.
Transmission electron microscopy (TEM) and Scanning Electron Microscopy (SEM) were utilized to study the morphology of the aggregates with and without chelators, as well. […] Aliquots from the stock used to make grid (a) were then incubated with 1 for 12 hours and then prepared for microscopy. The sizes of the aggregates upon treatment with 1 are an average of 1-2 orders of magnitude smaller and observably more diffuse, as shown in grid (b). SEM images also confirm the ability of the chelates to affect aggregate size as well.

[11] = ABTS radical assay standardized against Trolox; assay type: biochemical; conditions: ligand concentration 100 μM
[12] = Cu-ascorbate redox system with coumarin-3-carboxylic acid (CCA); assay type: biochemical
Description: As increased levels of ROS are associated with AD, Applicant's set out to investigate the antioxidant character of 1 compared to the heterocycles 2 and/or 3. […] Moreover, many of the pathways proposed to produce ROS leading to AD pathology involve metal ions. Applicant's therefore utilized the Cu-ascorbate redox system, Scheme 1, as a model to determine if the ligands could halt copper based redox activity under aerobic conditions:
Faller and co-workers employed this system to investigate the redox chemistry of amyloid systems with Cu. Coumarin-3-carboxylic acid (CCA), which generates fluorescent 7-hydroxy-CCA in the presence of hydroxyl radicals, was used to quantify the reduction of oxygen by copper redox-cycling in the presence of ascorbate.

[13] = system: FRDA cells; assay: Calcein AM viability assay with BSO; assay type: cell-based, human; conditions: Homo sapiens, 48 hour BSO 1 mM, compound 1 nM final, read-out: cell viability compared to untreated control cells
Procedure: FIG. 5 is a graph showing a Calcien AM viability assay of FRDA cells after 48 hour exposure to BSO [1 mM] with 1-4 [1 nM final].
FIG. 10 is a graph showing Calcein AM viability assay of FRDA cells after 48 hour exposure to BSO [1 mM] followed by addition of 2 [various concentrations].
FRDA cells have higher levels of ROS due to mitochondrial misfunction associated with frataxin expression and therefore serve as a good model for ROS protection. […] Calcein AM, a non-fluorescent, hydrophobic compound that easily permeates intact, live cells, was used as an indicator for cell viability.
This dose response is visualized in the fluorescent cell images shown in FIG. 11 with increased cell survival corresponding to increasing 2 in the nM range.

[14] = system: FRDA cells; assay: DCFH-DA ROS assay with BSO; assay type: cell-based, human; conditions: 12 hours BSO 1 mM, compound 4 nM
Procedure: FIG. 6 is a graph showing DCFH-DA fluorescent response in FRDA cells after 12 hours exposure to BSO [1 mM] with 1-4 [4 nM].
FIG. 7 is a graph of DCFH-DA fluorescent response in FRDA cells after 12 hours exposure to BSO [1 mM] showing dose dependence with 1.
FIG. 9 is a graph of DCFH-DA fluorescent response in FRDA cells after 12 hours exposure to BSO [1 mM] showing dose dependence with 1 and 2.
The antioxidant activity of compound 1 compared to compounds 2-3 (Chart 1) was then studied using the cell-permeable fluorophore 2,7′-Dichlorodihydrofluorescin diacetate (DCFH-DA) as an indicator for ROS. DCFH-DA diffuses into cells and is deacetylated by cellular esterases to non-fluorescent 2′,7′-Dichlorodihydrofluorescin (DCFH). This species is subsequently oxidized to the highly fluorescent 2′,7′-Dichlorodihydrofluorescein (DCF) species in the presence of ROS. The fluorescent intensity is directly proportional to the amount of ROS present in cell cytosol. BSO (2-amino-4-(butylsulfonimidoyl)butanoic acid) was used to inhibit the first step of de novo glutathione synthesis, allowing us to observe the elevated intra-cellular [ROS] are thereby observed.
Cellular studies were carried out to evaluate the intra-cellular antioxidant efficacy and toxicity of compound 2 (Chart 2) compared to 1 using the cell-permeable fluorophore 2,7′-dichlorodihydrofluorescin diacetate (DCFH-DA) as an indicator for ROS. DCFH-DA diffuses into cells and is deacetylated by cellular esterases to non-fluorescent 2′,7′-dichlorodihydrofluorescin (DCFH) which is subsequently oxidized to the highly fluorescent 2′,7′-dichlorodihydrofluorescein (DCF) species in the presence of ROS. The fluorescence intensity is directly proportional to the amount of ROS present in cell cytosol.^11 BSO (2-amino-4-(butylsulfonimidoyl)butanoic acid) is a commonly used model for oxidative stress via inhibition of cytosolic glutathione synthesis resulting in elevated intra-cellular [ROS] and an increased fluorescent signal in the presence of DCFH (FIG. 9).

[15] = system: two separate cell lines; assay: Preliminary cell-viability screen; assay type: cell-based
Description: as §1

## O=C(CCCCC1CCSS1)N1CCNCCNCCNCC1 (racemic) [Compound 2 (Chart 4), (±)-5-(1,2-dithiolan-3-yl)-1-(1,4,7,10-tetraazacyclododecan-1-yl)pentan-1-one]
[1]
  quenching of the DPPH radical: equivalent amount of radical
[2]
  EC50 at 48 h: 312 µM
[3]
  increase of cell proliferation with respect to the control (Aβ+Cu^+2): 37%

## O=C(O)CCCC[C@@H](S)CCS (racemic) [DHLA, dihydrolipoic acid]
[4]
  pKa: 4.7
[5]
  redox potential: −320 mV

## c1cc2nc(c1)CNCCNCCNC2 [1 (Chart 1), pyclen]
[6]
  log K constants Cu^II: 20
[7]
  log K constants Zn^II: 14
[8]
  disaggregation of pre-formed metal-induced Aβ1-40 aggregates (turbidity): reversed
[8]; listed as 1 (Chart 2)
  disaggregation of pre-formed metal-induced Aβ1-40 aggregates (turbidity): disaggregated
[8]; ligand co-incubated with amyloid before copper(II) or zinc(II) addition
  prevention of metal-induced Aβ1-40 aggregation (turbidity): prevents formation of aggregations
[9]; ligand added to pre-formed metal aggregates
  reconstitution of Tyr^10 fluorescence of aggregated Aβ1-40: equally effective
[9]; ligand co-incubated prior to metal ion addition, 24 hours
  prevention of loss of Tyr^10 fluorescence of Aβ1-40: equally effective
[10]
  decrease of amyloid aggregate size compared to the copper aggregates (TEM): 1-2 orders of magnitude
[11]
  Trolox equivalents (ABTS radical): 0.4 Trolox equivalents
[12]; CCA 100 uM, ascorbate 300 uM, Cu^II 40 uM
  OH. generation measured as 7-hydroxy-CCA fluorescence, ligand co-incubated: prevented entirely
[12]; added after two minutes co-incubation with CCA
  7-hydroxy-CCA signal after addition to running Cu-ascorbate system: leveling of the 7-hydroxy-CCA signal
[13]
  viability at 0.001 µM: > 85%
[14]
  increase of ROS over the negative control (media): 15%
[15]
  tolerance in cell-viability screen: large degree of tolerance
